# Results from patent US20240197749A1, “METHOD OF INHIBITING LIPOGENESIS WITH UBIQUITIN-SPECIFIC PEPTIDASE 24 INHIBITOR COMPOSITION” (NATIONAL CHENG KUNG UNIVERSITY, priority 2022, published 2024).
# Experiments:
# USP24 [1] = target: T1, USP24 (Homo sapiens, UniProt Q9UPU5); conditions: known; cited from earlier work
# USP24 [2] = target: T1, USP24; assay: inhibition of USP24 activity; assay type: biochemical; conditions: in comparison to USP24-i1; not shown in the figures
# HFD mice [3] = assay: treatment of HFD mice after obesity: body weight, visceral fat, fatty liver, eWAT and iWAT; assay type: in vivo
# From the text: (§1) In the previous studies of the inventors, USP24-i-101 treated (i.p.) the HFD mice from the initiation of the experiment. […] In this Example, USP24-i-101 treated the mice after obesity, not from initiation. Mice were fed with HFD for two months and then treated with USP24-i-101 one month (two times per week, i.p.).
# In addition, USP24-i-101 could inhibit eWAT and iWAT of mice. The subcutaneous fat and visceral fat (around organs such as kidney and reproductive organs) were collected to analyze the size of the epididymal WAT [eWAT, as shown in FIG. 11D (a), upper panel of FIG. 11D(c) and upper panel of FIG. 11D(d)] and inguial WAT [iWAT, as shown in FIG. 11D(b), lower panel of FIG. 11D(c) and lower panel of FIG. 11D(d)].
# HFD mice [4] = assay: magnetic resonance imaging (MRI) of level and distribution of fat in HFD mice; conditions: MRI in vivo signal and collected kidney organs
# From the text: The HFD mice with or without USP24-i-101 treatment according to the experimental flowchart of FIG. 12A were examined by magnetic resonance imaging (MRI) equipment to assess the level and distribution of fat inside them.
# USP24-WT HFD mice = assay: Oil-Red-O staining assay of liver tissue sections (hepatic lipid accumulation); assay type: in vivo; conditions: i.p. 10 mg/kg once a week for two consecutive months
# From the text: (§2) Animal-related experiments had been reviewed and approved by the Institutional Animal Care and Use Committee (IACUC) of National Cheng Kung University (NCKU). These genetically modified mice were generated at the National Laboratory Animal Center (NLAC) in Tainan, Taiwan. After breeding, 2 months-old wild-type mice and genetically modified mice were used to study lipogenesis progress. The cages provided adequate space, and the population density allowed the animals to move freely. The provided feed was sufficient for the normal growth and maintenance of regular body weight in both wild-type and genetically modified mice. Genetically modified mice had access to fresh, uncontaminated drinking water. Genetically modified mice were observed and cared for at least 2 to 3 times a week. All animal-related procedures were conducted in accordance with relevant guidelines and regulations.
# In this embodiment, the analysis of hepatic lipid accumulation and distribution were performed using the Oil-Red-O staining assay. […] The USP24 inhibitor was administered by intraperitoneal injection (i.p.) at a dose of 10 mg/kg once a week for two consecutive months. Statistical analysis was conducted using a t-test, where * indicates p<0.01, and ** indicates p<0.005 (FIG. 5B).
# HFD mice [5] = assay: treatment of HFD mice from the initiation of the experiment (previous studies of the inventors); assay type: in vivo; conditions: HFD mice treated i.p. from the initiation of the experiment
# From the text: as §1
# HFD-mice = assay: serum tests / safety assay by ELISA in ND and HFD mice; assay type: in vivo; conditions: serum of HFD mice; i.p. 10 mg/kg once a week for two months
# Description: As shown in FIGS. 10A to 10H, serum were collected from normal diet (ND) and high fat diet (HFD) mice with or without USP24-i-101 treatment to study the safety assay by ELISA assay.
# In this Example, wild-type mice were fed a normal diet (ND) or a high-fat diet (HFD), and they were injected intraperitoneally (i.p.) with 10 mg/kg of USP24-i once a week for two consecutive months. Subsequently, mouse sera were collected, and serum-related indices were examined to assess the impact of USP24-i on lipogenesis and liver function, as depicted in FIGS. 10A to 10H.
# There was no statistically significant difference of the time of latency to fall off the rotarod between the USP 24 KO mice and the wild-type USP 24 mice, as shown in FIG. 10B. Mouse sera were collected from normal diet (ND) and high fat diet (HFD) mice with or without USP24-i treatment to perform the safety evaluation by ELISA assay. […] Therefore, USP24 inhibitor could inhibit the lipogenesis, thereby improving liver activity.
# CREB = CREB and its phosphorylation during 3T3-L1 differentiation; assay type: cell-based, mouse
# [6] = system: differentiated 3T3-L1 cells; assay: Western blotting of proteins associated with adipocyte formation in 3T3-L1 cells; assay type: cell-based, mouse; conditions: Western blot, vs DMSO
# Description: (§3) Commercially available mouse fibroblast cell line 3T3-L1 was cultured in commercially available Dulbecco's Modified Eagle Medium (DMEM) containing 10% fetal bovine serum (FBS), 100 μg/mL streptomycin, and 100 U/ml penicillin G sodium salt. All cell cultures were maintained at 37° C. with 5% CO2.
# (§4) Please referred to FIG. 6A, which illustrated the experimental procedure for evaluating the effects of USP24 inhibitor on the induction of 3T3-L1 cells into adipocytes according to an embodiment of the present invention. When 3T3-L1 cells reached approximately 70% confluence, the MDIR induction medium containing USP24 inhibitor (5 μM or 10 μM) was added to the cells on day 0 and cultured for 2 days. Subsequently, on day 2, the induction medium was replaced with fresh medium containing USP24 inhibitor (5 μM or 10 μM) and insulin (10 μg/mL), and the cells were cultured for an additional 2 days. Next, the culture medium was changed the fresh medium containing USP24 inhibitor on day 4, and the cells were cultured for 4-6 more days, allowing 3T3-L1 cells to differentiate into adipocytes or adipocyte-like cells. And then, the cells were stained with Oil-Red-O (on days 8-10) to assess the influence of USP24 inhibitor on adipocyte formation, as shown in FIGS. 6B and 6C.
# The MDIR induction medium included 0.5 mM 3-isobutyl-1-methylxanthine (IBMX), 1 μM dexamethasone (D), […] insulin (I), and 1 μM rosiglitazone (R) in Dulbecco's Modified Eagle Medium (DMEM). The components M, D, R, and USP24 inhibitor were dissolved in dimethyl sulfoxide (DMSO) and then added to DMEM. The insulin culture medium contained 10 μg/mL insulin in DMEM, and the fresh medium included 10% fetal bovine serum (FBS) in DMEM.
# It was known that PPAR-γ and PLIN1 were important markers for adipocytes. In this embodiment, commercially available antibodies were used to perform Western blotting on 3T3-L1 cells to evaluate the expression levels of proteins associated with adipocyte formation in response to USP24-i-a treatment, as shown in FIGS. 7A to 7G.
# 3T3-L1 cells = assay: differentiation of 3T3-L1 cells into adipocytes, Oil-Red-O staining; assay type: cell-based, mouse; conditions: 5 μM or 10 μM, MDIR induction, Oil-Red-O on days 8-10; dose-dependent; vs DMSO
# Description: as §3
# as §4, with “6C. […]” for “6C.”
# USP24-WT mice = assay: liver tissue section H&E staining after normal diet or high-fat diet and USP24 inhibitor; assay type: in vivo; conditions: USP24 inhibitor oral 2 months
# From the text: as §2
# It was known that USP24 inhibitor (USP24-i1, NCI677397, Formula I-3-3) could block USP24 catalytic activity, delaying or reversing cancer drug resistance.
# [7] = HFD two months, then treatment one month, two times per week, i.p.
# T1 sequence (Q9UPU5 whole entry, species assumed): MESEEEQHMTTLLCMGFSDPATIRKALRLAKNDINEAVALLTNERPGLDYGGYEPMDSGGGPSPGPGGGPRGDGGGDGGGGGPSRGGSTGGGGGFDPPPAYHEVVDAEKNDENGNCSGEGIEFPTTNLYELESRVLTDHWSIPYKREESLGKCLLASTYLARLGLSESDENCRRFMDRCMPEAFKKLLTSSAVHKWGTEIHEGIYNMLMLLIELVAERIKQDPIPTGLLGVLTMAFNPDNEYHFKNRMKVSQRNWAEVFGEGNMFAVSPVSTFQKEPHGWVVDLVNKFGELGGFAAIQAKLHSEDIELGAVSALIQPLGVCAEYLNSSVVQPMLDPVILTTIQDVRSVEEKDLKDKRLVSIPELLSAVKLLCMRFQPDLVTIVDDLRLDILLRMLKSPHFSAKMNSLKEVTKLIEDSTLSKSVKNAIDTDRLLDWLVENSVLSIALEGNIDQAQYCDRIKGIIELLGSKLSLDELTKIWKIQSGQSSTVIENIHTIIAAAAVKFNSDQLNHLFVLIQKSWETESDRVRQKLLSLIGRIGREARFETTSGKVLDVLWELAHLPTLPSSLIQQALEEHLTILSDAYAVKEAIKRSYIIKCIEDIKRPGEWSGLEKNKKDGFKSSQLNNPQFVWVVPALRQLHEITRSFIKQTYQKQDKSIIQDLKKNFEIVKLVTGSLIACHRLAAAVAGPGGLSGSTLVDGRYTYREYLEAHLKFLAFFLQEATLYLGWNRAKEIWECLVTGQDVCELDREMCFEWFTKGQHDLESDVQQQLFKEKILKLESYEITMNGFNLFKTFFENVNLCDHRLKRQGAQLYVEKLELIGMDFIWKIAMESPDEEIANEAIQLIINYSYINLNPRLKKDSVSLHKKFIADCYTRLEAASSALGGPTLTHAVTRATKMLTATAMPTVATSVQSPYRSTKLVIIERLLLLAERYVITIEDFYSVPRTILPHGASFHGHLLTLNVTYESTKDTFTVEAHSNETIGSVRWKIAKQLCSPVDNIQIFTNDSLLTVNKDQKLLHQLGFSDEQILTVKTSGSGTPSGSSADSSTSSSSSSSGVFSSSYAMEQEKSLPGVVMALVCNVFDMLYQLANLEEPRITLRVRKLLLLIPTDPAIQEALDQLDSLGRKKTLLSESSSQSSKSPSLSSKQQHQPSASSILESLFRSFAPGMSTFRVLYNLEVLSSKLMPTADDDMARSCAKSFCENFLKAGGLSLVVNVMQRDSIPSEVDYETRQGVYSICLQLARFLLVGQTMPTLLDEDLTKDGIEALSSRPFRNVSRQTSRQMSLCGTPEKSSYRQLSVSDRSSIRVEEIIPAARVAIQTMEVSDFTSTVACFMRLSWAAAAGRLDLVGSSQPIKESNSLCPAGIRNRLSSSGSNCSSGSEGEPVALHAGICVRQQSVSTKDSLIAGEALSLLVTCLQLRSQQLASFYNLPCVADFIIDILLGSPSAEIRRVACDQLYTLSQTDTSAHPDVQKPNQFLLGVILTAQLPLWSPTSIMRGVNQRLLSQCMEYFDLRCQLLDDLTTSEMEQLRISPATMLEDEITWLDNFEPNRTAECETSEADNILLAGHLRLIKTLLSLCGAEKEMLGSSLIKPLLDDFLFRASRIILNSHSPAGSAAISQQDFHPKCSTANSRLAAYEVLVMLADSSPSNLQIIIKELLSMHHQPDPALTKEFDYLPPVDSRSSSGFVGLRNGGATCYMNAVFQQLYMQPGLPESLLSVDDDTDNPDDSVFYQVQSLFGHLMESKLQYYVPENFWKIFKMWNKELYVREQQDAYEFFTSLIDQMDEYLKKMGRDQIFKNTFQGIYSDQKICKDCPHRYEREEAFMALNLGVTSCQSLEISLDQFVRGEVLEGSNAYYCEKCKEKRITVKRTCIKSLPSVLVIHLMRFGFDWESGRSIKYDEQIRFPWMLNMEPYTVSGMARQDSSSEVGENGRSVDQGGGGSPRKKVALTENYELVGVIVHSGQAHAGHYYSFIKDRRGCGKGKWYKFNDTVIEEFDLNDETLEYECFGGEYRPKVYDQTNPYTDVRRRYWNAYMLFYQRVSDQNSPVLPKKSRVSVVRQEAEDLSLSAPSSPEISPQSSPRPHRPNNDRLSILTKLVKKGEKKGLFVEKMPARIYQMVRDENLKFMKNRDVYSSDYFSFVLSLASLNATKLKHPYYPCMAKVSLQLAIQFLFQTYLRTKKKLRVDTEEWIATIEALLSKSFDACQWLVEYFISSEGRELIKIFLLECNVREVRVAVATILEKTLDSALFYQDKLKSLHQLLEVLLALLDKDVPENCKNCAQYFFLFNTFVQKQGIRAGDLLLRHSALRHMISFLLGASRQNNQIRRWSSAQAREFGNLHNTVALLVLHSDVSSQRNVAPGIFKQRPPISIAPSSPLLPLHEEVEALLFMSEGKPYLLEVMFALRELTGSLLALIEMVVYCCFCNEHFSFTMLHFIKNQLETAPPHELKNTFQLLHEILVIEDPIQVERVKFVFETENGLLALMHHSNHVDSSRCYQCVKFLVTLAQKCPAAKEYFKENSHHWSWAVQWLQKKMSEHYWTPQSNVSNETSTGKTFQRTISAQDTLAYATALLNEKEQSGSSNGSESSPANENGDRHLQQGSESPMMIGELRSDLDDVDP
smiles,measurement,setting,value
CN1CCN(CCCCN2c3ccccc3Sc3ccc(C(=O)c4ccccc4)cc32)CC1 [USP24-i1],USP24 catalytic activity,USP24 [1],could block
CN1CCN(CCN2c3ccccc3Sc3ccc(C(=O)c4ccccc4)cc32)CC1 [USP24-i-a],inhibition of USP24 activity,USP24 [2],superior inhibition
same,size of epididymal WAT (eWAT),HFD mice [3]; HFD mice,could be inhibited
same,size of inguial WAT (iWAT),HFD mice [3]; HFD mice,could be inhibited
same,body weight,HFD mice [3]; [7],significantly decreased
same,fatty liver,HFD mice [3]; [7],really decreased
same,visceral fat,HFD mice [3]; [7],really decreased
same,signal of fat around subcutaneous and organs,HFD mice [4],significantly inhibited
same,signals of Oil-Red-O staining in the liver,USP24-WT HFD mice,significantly reduced or nearly disappeared
same,body weight,HFD mice [5],could be inhibited
same,fatty liver,HFD mice [5],could be inhibited
same,GOT (glutamic oxaloacetic transaminase),HFD-mice,significantly inhibited
same,GPT (glutamic pyruvic transaminase),HFD-mice,significantly inhibited
same,albumin (ALB),HFD-mice,did not significantly change
same,total cholesterol,HFD-mice,significantly inhibited
same,total protein (TP),HFD-mice,did not significantly change
same,triglyceride (TG),HFD-mice,did not significantly change
same,CREB,CREB,inhibited
same,CREB phosphorylation,CREB,inhibited
same,expression level of C/EBPβ,[6],also reduced
same,expression level of SREBP1,[6],also reduced
same,expression level of PLIN1 (Perilipin 1),[6]; dose-dependent,reduced
same,expression level of PPAR-γ,[6]; dose-dependent,reduced
same,lipid droplet accumulation,3T3-L1 cells,significant reversal
same,lipid droplets in liver (H&E),"USP24-WT mice; USP24-WT HFD mice, 2 months high-fat diet",few to no lipid droplets
same,lipid droplets in liver (H&E),"USP24-WT mice; USP24-WT ND mice, 2 months normal diet",few to no lipid droplets
